Several values for one entry are separate records, joined by “and”; a condition that tells them apart may be missing. Equal values may be shown once. Read-outs that look alike come from different tables or passages of the source. One block for each molecule: values may come before it.
Columns and labels:
[1] = Fluorescence binding study with mannose; settings: for Association constant (Ka) with mannose: 0.1 M phosphate buffer pH 7.4, 1:1 complex assumed
Description: (§1) For a typical sugar-BTBA fluorescent measurement, a 1.0×10^−5 M stock solution of BTBA in 0.10 M phosphate buffer at pH 7.4 was made as solution A. […] Solution B was titrated into solution A in order to make mixtures with a constant concentration of BTBA and a range of concentrations of the sugar. Each mixture was allowed to stand for at least 10 min, then 3.0 mL of the mixture was transferred into a cuvette for fluorescence measurement.
(§2) The association constants (Ka) were determined according to the method III in Valeur's publication (J. Phys. Chem. 1988, 92, 6233).

[2] = Fluorescence binding study with arabinose; settings: 0.1 M phosphate buffer pH 7.4
Description: For a typical sugar-BTBA fluorescent measurement, a 1.0×10^−5 M stock solution of BTBA in 0.10 M phosphate buffer at pH 7.4 was made as solution A. The sugar was added to a portion of solution A to make a 1.0×10^−5 M BTBA, 1.0×10^−3 M sugar solution as solution B. Solution B was titrated into solution A in order to make mixtures with a constant concentration of BTBA and a range of concentrations of the sugar. Each mixture was allowed to stand for at least 10 min, then 3.0 mL of the mixture was transferred into a cuvette for fluorescence measurement.
as §2

[3] = Fluorescence binding study with galactose; settings: for Association constant (Ka) with galactose: 0.1 M phosphate buffer pH 7.4, 1:1 complex assumed; for fluorescence intensity change ΔI/I0: pH 7.4
Description: as §1, §2

[4] = Fluorescence binding study with fructose; settings: for Association constant (Ka) with fructose: 0.1 M phosphate buffer pH 7.4, 1:1 complex assumed; for fluorescence intensity change ΔI/I0: pH 7.4
Description: as §1, §2

[5] = Fluorescence intensity pH profile (apparent pKa); assay type: physicochemical
Text: Since the fluorescence intensity increase upon binding with a sugar seems to be a general phenomenon, the fluorescence change mechanism of compound 5 at pH 7.4 was investigated. For this purpose, the fluorescence pH profiles of both compound 5 alone and compound 5 in the presence of fructose (0.5 M) were studied. The fluorescence intensity of 5 at 334 nm in the absence of sugars decreased upon changing the pH from 3 to 12 (FIG. 3). An apparent pKa of 7.0 was observed, which is assigned to the boronic acid moiety. […] It is well-known that the binding of a diol to boronic acid often lowers the pKa of the boron species) (Springsteen, G.; Wang, B. Tetrahedron 2002, 58, 5291-5300). Therefore, the pKa, which drops from 7.0 to 4.0, can also be reasonably assigned to boron. […] It seems that the fluorescence intensity change of compound 5 is also due to diol's perturbation as that of 8-quinolineboronic acid.
To examine the relationship between the fluorescence intensity changes and the boron ionization states, the pH profile of the fluorescence intensity in the absence and presence of fructose and glucose at a fixed concentration (50 mM) was also studied (FIG. 6). […] It is worth mentioning that the pKa of the protonated dimethyl amino group of 1 is […] the emission wavelength of 1 with the protonated dimethyl amino group at low pH is about 238 nm. Therefore, the fluorescence intensity of 1 at 445 nm was not affected by the protonated dimethyl amino group. The fluorescence intensity changes correspond to the boronic acid pKa (9.4) and therefore hybridization changes, which was responsible for the fluorescence intensity changes observed.
Since the fluorescence intensity increase upon binding with a sugar seems to be a general phenomenon, next the conditions under which optimal fluorescence intensity changes are observed upon addition of a sugar was investigated. For this purpose, the fluorescence pH profiles of both compound 6 alone and in the presence of fructose (0.5 M) were studied. The fluorescence intensity of 6 in the absence of sugars increased by 17-fold upon changing the pH from 3 to 12 (FIG. 10). […] Furthermore, one would expect the pKa values of the other two ionizable groups, the carboxylic acid and the quinolinium groups, to be less than 7. Therefore, assigning the pKa at 7.9 to the boronic acid moiety is the most reasonable option. […] It is well-known that the binding of a diol to boronic acid often lowers the pKa of the boron species. […] Upon addition of fructose, the pKa of the boron drops to about 5.2, which ensures that most of the boron species are in the anionic tetrahedral state at physiological pH.
(§3) Since the fluorescence intensity increase upon binding with a sugar seems to be a general phenomenon, the use of 5-QBA functions as a fluorescent probe for diols was investigated. The fluorescence pH profiles of both 5-QBA alone and 5-QBA in the presence of D-fructose (0.5 M) were investigated. […] In order to assign each pKa, the ^11B NMR spectra of 5-QBA and its ester in a mixed deuterated methanol-water (1:1) solvent at different pH were obtained. Methanol was used so that the concentration of 5-QBA can be increased to 57 mM so as to allow for a meaningful NMR determination within a reasonable period of time.
To understand the structural features associated with the fluorescence intensity changes, we studied the pH profiles of the fluorescence intensity in the absence (FIG. 18) and presence of fructose and glucose at a fixed concentration (50 mM). […] The fluorescence intensity at 513 nm increased very quickly when pH increased from 1.78 to 7.04 (thin lines in FIG. 18), and then decreased in the pH range of 7.04-10.54 (thick lines in FIG. 18).

[6] = 11B NMR at different pH (pKa assignment); assay type: physicochemical; settings: absence of sugar; 11B NMR in deuterated methanol-water (1:1); read-out: second pKa corresponding to boronic acid ionization
Text: as §3
It should be noted that the addition of 50% methanol to water solution results in minimal changes of the solution pH. The boron signal of 5-QBA appeared at 30.0 ppm at both pH 2.0 and 7.0, consistent with the neutral trigonal boron. At an increased pH (7.5), two boron signals at 30.0 and 10.0 ppm were observed indicating a mixture of both the neutral and anionic species. […] At pH 12, a single peak at 5.7 ppm was found indicating the presence of only the anionic tetrahedral state. […] This pKa assignment is opposite to that of 8-QBA. For the fructose ester of 5-QBA, we observed the same chemical shifts (at about 10.5 ppm) at pH 6.0 and 11. […] Such a pKa-switching seems to correspond to the highest fluorescence intensity change at pH 5.8 (FIG. 13).

[7] = Fluorescence binding study with glucose; settings: for Association constant (Ka) with glucose: 0.1 M phosphate buffer pH 7.4, 1:1 complex assumed; for maximum fluorescence intensity increase: physiological pH; for fluorescence intensity change ΔI/I0: pH 7.4
Description: as §1, §2

[8] = literature value; cited from earlier work
[9] = literature value (Springsteen, Wang); cited from earlier work
[10] = literature value (Springsteen, Wang); cited from earlier work; remark: listed apart in the source
[11] = Fluorescence binding study with sorbitol
Description: as §1, §2

[12] = Fluorescence quantum yield; assay type: physicochemical; settings: 0.1 M phosphate buffer pH 7.4
Description: The effect of various carbohydrates on the fluorescent properties of compound 1 was determined in phosphate buffer at pH 7.4. The emission spectral change of 1 with fructose at different concentrations in 0.1 M aqueous phosphate buffer (pH 7.4) is shown in FIG. 4. A 41-fold emission intensity increase is observed in presence of 50 mM fructose. To the best of our knowledge, such a large emission intensity increase has never been reported for boronic acid-based saccharide sensors involving the ICT mechanism. The quantum yields of 1 in the absence (φF=0.010) and in the presence of 50 mM fructose (φF=0.42) in 0.1 M phosphate buffer (pH 7.4) were obtained using 8-quinoline boronic acid (φF=0.58 in 12 M H2SO4) as a reference compound.
For example, addition of fructose (50 mM) to the solution of 7 induced a 36-fold fluorescence intensity increase at 433 nm and a 0.55-fold fluorescence intensity decrease at 513 nm (FIG. 14). […] To the best of our knowledge, such large emission intensity changes at two wavelengths have never been reported for boronic acid-based saccharide sensors. The quantum yields (φF) of 7 were determined as 0.07 at 513 nm in 0.1 M phosphate buffer (pH 7.4) in the absence of a sugar and 0.23 at 433 nm in the presence of 50 mM of fructose, using 8-quinoline boronic acid (φF=0.58 in 12 M H2SO4) as a reference compound.

[13] = Fluorescence binding study with tagatose
Description: as §1, §2

[14] = in 12 M H2SO4; reference compound; cited from earlier work
[15] = 0.1 M phosphate buffer, absence of sugar, 0.1 M phosphate buffer, read-out: apparent pKa assigned to the boronic acid moiety
[16] = 0.1 M phosphate buffer pH 7.4, 1:1 complex assumed

Structure (SMILES): OB(O)c1ccccc1 [phenylboronic acid]
Ka for fructose [8]: 162 M⁻¹ | Ka for glucose [9]: 5 M⁻¹ | Ka for galactose [10]: 15 M⁻¹

Structure (SMILES): O=C(O)c1cc(-c2ccc(B(O)O)cc2)nc2ccccc12 [Compound 6, 2-(4-phenylboronic acid)-quinoline-4-carboxylic acid]
maximum fluorescence intensity increase ([7]; glucose 0.2 M): 6 fold | emission intensity increase ([4]; 25 mM fructose, phosphate buffer pH 7.4): 25 fold | pKa [5, 15]: 7.9

Structure (SMILES): OB(O)c1cccc2cccnc12 [Compound 4, 8-quinolineboronic acid]
quantum yield φF [14]: 0.58

Other lines, results leading:

Association constant (Ka) with mannose [1]: 60 ± 2 M⁻¹ | Binding constant with arabinose [2]: 121 ± 16 M⁻¹ | Association constant (Ka) with galactose [3]: 90 ± 2 M⁻¹ | Association constant (Ka) with fructose [4]: 924 ± 88 M⁻¹ | binding constant with D-fructose, increase compared with 8-QBA ([4]; 5-QBA versus 8-QBA): more than 8 folds | pKa ([5]; phosphate buffer, absence of a sugar, read-out: pKa assigned to the quinolinium nitrogen): 5.2 | pKa [6]: 7 to 12
Structure (SMILES): OB(O)c1cccc2ncccc12 [Compound 3]

Association constant (Ka) with glucose [7]: 27 M⁻¹ and 27 ± 4.9 M⁻¹ | Association constant (Ka) with mannose [1]: 30 ± 1.4 M⁻¹ | Association constant (Ka) with galactose [3]: 19 M⁻¹ and 19 ± 0.7 M⁻¹ | Association constant (Ka) with fructose [4]: 656 ± 28 M⁻¹ | pKa [5, 15]: 7
Structure (SMILES): OB(O)c1cc2ccccc2s1 [Compound 5, 2-Benzothienylboronic acid]

Association constant (Ka) with sorbitol [11, 16]: 226 ± 5 M⁻¹ | fluorescence intensity change ΔI/I0 ([11]; sorbitol 0.10 M, pH 7.4, λex 300 nm, λem 445 nm): 42 (0.10) | fluorescence intensity change ([11]; sorbitol at concentrations above 50 mM, physiological pH): more than 40 fold | Association constant (Ka) with glucose [7]: 4.0 ± 0.1 M⁻¹ and 5.1 ± 1.0 M⁻¹ | fluorescence intensity change ΔI/I0 ([7]; glucose 0.20 M, λex 270 nm, λem 400 nm): 6 (0.20) | fluorescence intensity change ΔI/I0 ([7]; glucose 1.0 M, λex 300 nm, λem 445 nm): 17 (1.0) | maximum fluorescence intensity increase ([7]; glucose 1 M): 17 fold | Association constant (Ka) with mannose [1]: 48 ± 5 M⁻¹ | fluorescence intensity change ΔI/I0 ([1]; mannose 0.025 M, pH 7.4, λex 270 nm, λem 400 nm): 14 (0.025) | fluorescence intensity change ΔI/I0 ([3]; galactose 0.025 M, λex 270 nm, λem 400 nm): 16 (0.025) | fluorescence intensity change ΔI/I0 ([3]; galactose 0.50 M, λex 300 nm, λem 445 nm): 35 (0.50) | quantum yield φF ([12]; absence of sugar): 0.010 | quantum yield φF ([12]; presence of 50 mM fructose): 0.42 | Association constant (Ka) with tagatose [13, 16]: 116 ± 2 M⁻¹ | fluorescence intensity change ΔI/I0 ([13]; tagatose 0.02 M, pH 7.4, λex 300 nm, λem 445 nm): 32 (0.02) | emission intensity increase ([4]; 50 mM fructose, 0.1 M aqueous phosphate buffer pH 7.4): 41 fold | fluorescence intensity change ΔI/I0 ([4]; fructose 0.025 M, λex 270 nm, λem 400 nm): 25 (0.025) | fluorescence intensity change ΔI/I0 ([4]; fructose 0.05 M, λex 300 nm, λem 445 nm): 41 (0.05) | fluorescence intensity change ([4]; fructose at concentrations above 50 mM, physiological pH): more than 40 fold | pKa [5, 15]: 9.4
Structure (SMILES): CN(C)c1ccc(B(O)O)c2ccccc12 [Compound 1, 4-(dimethylamino)-naphthalene boronic acid]

— patent US7767817B2, “Water soluble boronic acid fluorescent reporter compounds and methods of use thereof” (priority 2003, dated 2010)
